The values that follow come from US20230172935A1, “METHODS OF MONITORING KRAS MUTATIONS” (Cardiff Oncology, Inc., priority 2020, published 2023).

SMILES strings stand for the structures.

Data set [1] relates to mutant KRAS in cell free DNA in plasma. Briefly: Phase 1b/2 mCRC study, plasma KRAS mutant by ddPCR. It counts as in vivo, human. Conditions: with FOLFIRI and bevacizumab. On the procedure: Participants must have histologically confirmed metastatic and unresectable disease, and previously failed treatment or be intolerant to fluoropyrimidine and oxaliplatin with or without bevacizumab.
KRAS in cell free DNA in plasma from patients was periodically quantified using droplet digital PCR (BioRad), where percentage of KRAS that is mutant KRAS was determined. The lower limit of sensitivity of this assay was 0.001% mutant KRAS.
KRAS MAF was measured by digital droplet PCR (ddPCR) at baseline (Cycle 1 Day 1, pre-dose) and on-treatment (Day 1 of Cycles 2 to 9). […] Clinical responses were observed across different KRAS variants, including the 3 most common in CRC. […] In addition, patients with PR and SD tended to have lower on-treatment KRAS MAF than patients with early PD.

The next data set relates to DLD-1 cells. The data set is described as follows: Cell viability (CellTiterGlo) in KRAS mutant and WT isogenic CRC cells. It is filed as cell-based. Conditions: 72h treatment. From the text:
FIG. 5 is a graph showing cell viability in onvansertib-treated KRAS mutant and WT isogenic CRC cells.
(§1) Onvansertib, an oral and highly-selective PLK1 inhibitor, is a promising therapeutic option for KRAS-mutated CRC. PLK1, a key regulator of mitosis, is overexpressed in CRC and associated with poor clinical parameters.
(In general: In ATP-based viability assays light output follows the ATP content of the culture.)

Data set [2] relates to HCT-116 KRAS mutant xenograft. Briefly: HCT-116 KRAS-mutant CRC xenograft model. It is filed as in vivo.
Source text: FIG. 6A and FIG. 6B are graphs showing anti-tumor activity of onvansertib in combination with irinotecan and 5-FU in the HCT-116 KRAS-mutant CRC xenograft model.
as §1

The next data set has as its target PLK1 (Homo sapiens, UniProt P53350). Particulars: including other PLK members; cited from earlier work.
Data set [3] has as its system cell lines, both from solid as well as hematologic tumors. Conditions: large number of cell lines; cited from earlier work.
The test system of a further data set is cancer cell lines. Particulars: cited from earlier work.
Another data set relates to xenograft tumor. Conditions: well tolerated doses, oral administration; cited from earlier work.
Data set [4] concerns HT29 human colon adenocarcinoma xenografts. Particulars: in combination with irinotecan; cited from earlier work.
The subject of data set [5] is disseminated model of AML. Particulars: in combination with cytarabine; cited from earlier work.
For data set [6] the following is noted: cited from earlier work.
The conditions of data set [7]: cited from earlier work. The source holds these as a separate data set.
The subject of data set [8] is advanced/metastatic solid tumors. Particulars: evaluable patients; cited from earlier work.

Chain of PLK1 (P53350 whole entry): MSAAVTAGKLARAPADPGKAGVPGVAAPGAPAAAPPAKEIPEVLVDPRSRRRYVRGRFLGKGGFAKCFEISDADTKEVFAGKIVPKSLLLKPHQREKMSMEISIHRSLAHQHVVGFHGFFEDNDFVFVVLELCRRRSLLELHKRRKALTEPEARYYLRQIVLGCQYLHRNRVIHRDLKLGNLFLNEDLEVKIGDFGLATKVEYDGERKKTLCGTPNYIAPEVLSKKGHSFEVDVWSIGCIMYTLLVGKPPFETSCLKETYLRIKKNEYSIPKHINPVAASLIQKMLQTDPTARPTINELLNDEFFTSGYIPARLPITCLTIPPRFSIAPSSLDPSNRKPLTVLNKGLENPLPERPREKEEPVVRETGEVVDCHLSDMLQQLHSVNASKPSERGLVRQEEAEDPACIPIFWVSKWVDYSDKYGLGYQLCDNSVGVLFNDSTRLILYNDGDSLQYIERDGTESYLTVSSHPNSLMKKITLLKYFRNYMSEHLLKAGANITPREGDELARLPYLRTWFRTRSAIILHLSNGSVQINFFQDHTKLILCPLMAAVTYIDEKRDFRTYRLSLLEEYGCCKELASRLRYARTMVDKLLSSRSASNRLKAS

In the case of `CN1CCN(c2ccc(OC(F)(F)F)c(Nc3ncc4c(n3)-c3c(c(C(N)=O)nn3CCO)CC4)c2)CC1` [onvansertib, 1-(2-hydroxyethyl)-8-{[5-(4-methylpiperazin-1-yl)-2-(trifluoromethoxy)phenyl]amino}-4,5-dihydro-1H-pyrazolo[4,3-h] quinazoline-3-carboxamide], the “patients with KRAS undetectable within the 1st cycle” value is recorded as 4 patients in [1] (12 mg/m^2, 4 patients detectable at baseline) and 1 patients in data set [1] (15 mg/m^2, 2 patients detectable at baseline). In addition, the “change of KRAS mutant variants within the first cycle” value in data set [1] (five variants in 6 patients, 12 and 15 mg/m^2) is reported as “decreased”. Besides, the “mitotic arrest and cell death, mutant KRAS vs wild-type cells” value in the data set on DLD-1 cells was “more profound mitotic arrest and cell death in mutant KRAS cells”. Also, the combination effect result in data set [2] (in combination with irinotecan and 5-FU) is “synergy”. For the same molecule, the anti-tumor activity entry in [2] (single agent) is on record as “potent anti-tumor activity”. Moreover, on PLK1, the “specificity for PLK1 among a panel of 296 kinases” value was “high specificity”. Also, the “potency in proliferation assays” value in data set [3] is listed as “low nanomolar activity”. The “effect on cell cycle” value in the data set on cancer cell lines is reported as “mitotic cell-cycle arrest followed by apoptosis”. Further, in the data set with xenograft tumor, the xenograft tumor growth result is “inhibits xenograft tumor growth”. Moreover, the “tumor regression compared to each agent alone” value in data set [4] is reported as “enhanced tumor regression”. In addition, in data set [5], the survival of animals entry is given as “prolonged survival”. In addition, in [6] (in vivo), the half-life entry is listed as “about 24 hours”. Further, the oral bioavailability entry in data set [6] (rodent and nonrodent species) is reported as “good oral bioavailability”. Besides, the primary dose-limiting toxicities result in data set [7] (in vivo) is “neutropenia and thrombocytopenia”. Further, the “recovery of hematologic toxicities” value in data set [7] (reversible) was no more than 3 weeks. Besides, the “recommended phase 2 dose” value in data set [7] (single agent) is 24 mg/m^2. The “patients with stable disease” value in data set [8] is 5 of 16.
